Where “and” joins values, the source holds several entries; their conditions need not be identical. Equal values may be shown once.
Legend:
Conditions in all cases: 48 h
NCI-H295R [1] = test: IC50 (antiproliferative, ATP content)
NCI-H295R [2] = test: maximal response (efficacy) relative to DMSO (0%) and doxorubicin (-100%); higher = less growth inhibition
NCI-H295R [3] = test: IC50 (antiproliferative, ATP content); remark: listed apart in the source
Procedure, shortened: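 Cell viability of adrenocortical carcinoma cells was assessed as ATP by CellTiter-Glo luminescence. Cells at 1500 per well in 1536-well plates, in serum-free DMEM with ITS, received compounds by pin transfer at 8 final concentrations (0.6 nM–46 µM) after overnight culture and were then held 48 h at 37 °C, 5% CO2. IC50 was calculated by logistic fitting against vehicle and positive-control wells, compounds with no concentration response being recorded as above the top dose.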

Row | IC50 (NCI-H295R [1]) | IC50 (NCI-H295R [3]) [µM] | SMILES | maximal response (NCI-H295R [2])
1 | 3.35 µM |  | Cc1cc(O)c2c3c4c(cc(O)c13)C(C)(C)C(=O)c1c(O)cc(O)c(c1-4)C2=O | -103%
2 | 0.0094 µM |  | COc1cc2c(cc1O)CCN[C@]21CS[C@@H]2c3c(OC(C)=O)c(C)c4c(c3[C@H](COC1=O)N1[C@@H]2[C@H]2c3c(cc(C)c(OC)c3O)C[C@@H]([C@@H]1O)N2C)OCO4 | -117%
3 | 11.9 µM |  | [O-]S(C1=C(O)C(\C(C4=CC=C(N(C)C)C=C4)=C(C=C2)/C=C/C2=[N+](C)\C)=C(C=C3)C(C=C3S([O-])(=O)=O)=C1)(=O)=O.[Na+] | -103%
4 | 23.7 µM |  | COc1ccc(C=CC(=O)c2ccc(OC)cc2OC)cc1 | -117%
5 |  | > 46 | OC(=O)[C@]3(C)C[C@H]4/C5=C/C(=O)[C@H]2[C@@](C)(CC[C@@H]1[C@]2(C)CC[C@H](O)C1(C)C)[C@]5(C)CC[C@@]4(C)CC3 | -50.7%
6 |  | > 46 | C[C@]12CC[C@@H]3c4ccc(O)cc4CC[C@H]3[C@@H]1CC[C@@H]2OC(=O)CCC1CCCC1 | -33.7%
7 |  |  | [O-][n+]1ccccc1SSc1cccc[n+]1[O-] | -23.5%
8 |  |  | O=C(N)[C@@](C2=CC=CC=C2)([C@H]3CN(CCC4=CC(CCO5)=C5C=C4)CC3)C1=CC=CC=C1.Br | -31.7%
9 |  |  | COc1cc(CNC(=O)CCCC/C=C/C(C)C)ccc1O | -21.6%
10 |  |  | O=C(Nc1ccc(Cl)cc1)Nc1ccc(Cl)c(Cl)c1 | -41.7%
11 |  |  | Nc1ncnc2c1ncn2[C@@H]1O[C@H](COP(=O)(O)O)[C@@H](O)[C@@H]1O | 22%
12 |  |  | Nc1ccc(C(=O)Nc2ccccc2N)cc1 | -43.9%
13 |  |  | CCC(NC(C)C)C(O)c1ccc(O)c(O)c1.CS(=O)(=O)O (stereo not drawn) | -36%
14 |  |  | Cl.Cl.O=C1c2c(O)ccc(O)c2C(=O)c2c(NCCNCCO)ccc(NCCNCCO)c21 | -59.3%
15 |  |  | CCC(O)c1ccccc1 (stereo not drawn) | -25.2%
16 |  |  | CC(CN(C)C)CN1c2ccccc2Sc2ccc(C(F)(F)F)cc21.O=C(O)C=CC(=O)O (stereo not drawn) | -30.2%
17 |  |  | CN(Cc1ccc(C(C)(C)C)cc1)Cc1cccc2ccccc12 | -43.8%
18 |  |  | O=[N+]([O-])c1c(Cl)cccc1-c1c[nH]cc1Cl | -29.2%
19 |  |  | O=C([O-])C1=C(CSc2nnnn2CS(=O)(=O)[O-])CS[C@@H]2[C@H](NC(=O)[C@H](O)c3ccccc3)C(=O)N12.[Na+].[Na+] | 25.5%
20 |  |  | C/C(=C\c1csc(C)n1)[C@@H]1C[C@@H]2O[C@]2(C)CCC[C@H](C)[C@H](O)[C@@H](C)C(=O)C(C)(C)[C@@H](O)CC(=O)O1 | -57.6%
21 |  |  | Oc1ccc(Cl)c2cccnc12 | -33.2%
22 |  |  | Cc1ccc2c(Br)cc(Br)c(O)c2n1 | -71.4%

Row | IC50 (NCI-H295R [1]) | IC50 (NCI-H295R [3]) [µM] | SMILES | maximal response (NCI-H295R [2])
23 |  |  | COC(=O)C1=C(C#N)NC(C)=C(C(=O)OC(C)C)C1c1cccc([N+](=O)[O-])c1 (stereo not drawn) | -23.9%
24 |  |  | COc1c(C)c2c(c(O)c1C/C=C(\C)CCC(=O)O)C(=O)OC2 | -29.5%
25 |  |  | O=[C@@](OC)[C@](C(N3)=C(C4)C2=C3C=CC=C2)([C@@]5=CC([C@]69[C@]8([H])[C@](C=CCN8CC9)(CC)[C@@H](OC(C)=O)[C@](O)([C@](OC)=O)[C@@]([H])6N7C)=C7C=C5OC)C[C@]1([H])C=C(CC)CN4C1.O=C(O)C(O)C(O)C(O)=O.O=C(O)C(O)C(O)C(O)=O | -56.6%
26 |  |  | O=C(N/N=C/c1ccccc1O)c1ccncc1 | -33.1%
27 |  |  | Cc1cc2nc3c(=O)[nH]c(=O)nc-3n(C[C@H](O)[C@H](O)[C@H](O)COP(=O)([O-])OP(=O)([O-])OC[C@H]3O[C@@H](n4cnc5c(N)ncnc54)[C@H](O)[C@@H]3O)c2cc1C.[Na+].[Na+] | 22%
28 |  |  | O[C@@]1(CC)C[C@H](C2)C[C@@]([C@]7=C(OC)C=C6N(C)[C@]5([H])[C@@](C6=C7)(CC9)[C@](N9CC=C8)([H])[C@]8(CC)[C@@H](OC(C)=O)[C@@](O)5[C@@](OC)=O)([C@](OC)=O)C(NC4=CC=CC=C34)=C3CCN2C1.O=S(O)(O)=O | -54.7% and -52.9%
29 |  |  | CNCC/C=C2/C1=C(CCC3=C2C=CC=C3)C=CC=C1.Cl | -38.9%
30 |  |  | F\C1=C\N(C(=O)NC1=O)[C@H]2C[C@H](O)[C@@H](CO)O2 | -37.6%
31 |  |  | CCCCN(CCCC)CC(O)c1cc(Cl)cc2c1-c1ccc(Cl)cc1/C2=C/c1ccc(Cl)cc1 (stereo not drawn) | -31.5%
32 |  |  | N\1(C(N(C(CC)C)/N=C/1)=O)c7ccc(N2CCN(CC2)c6ccc(OC[C@@H]5O[C@](c3c(cc(cc3)Cl)Cl)(Cn4ncnc4)OC5)cc6)cc7 (stereo partly drawn) | -23.1%
33 |  |  | C[C@]12CCC(=O)C=C1[C@@H]1C[C@@H]1[C@H]1[C@@H]3[C@@H]4C[C@@H]4[C@@]4(CCC(=O)O4)[C@@]3(C)CC[C@@H]12 | -33.2%
34 |  |  | COC(=O)Nc1nc2cc(Sc3ccccc3)ccc2[nH]1 | -54.1%
35 |  |  | COC1=CC(=O)C[C@@H](C)[C@]12Oc1c(Cl)c(OC)cc(OC)c1C2=O | -30.5%
36 |  |  | CC(=O)[O][Co][N]1/C2=C(/C)C3=N/C(=C\C4=NC(=C(/C)C5=N[C@H]([C@H](CC(N)=O)[C@@]5(C)CCC(=O)NCC(C)OP(=O)(O)O[C@H]5[C@@H](O)[C@@H](n6cnc7cc(C)c(C)cc76)O[C@@H]5CO)[C@@]1(C)[C@@](C)(CC(N)=O)[C@@H]2CCC(N)=O)/[C@@H](CCC(N)=O)C4(C)C)[C@@H](CCC(N)=O)[C@]3(C)CC(N)=O (stereo partly drawn) | -34.1%
37 |  |  | COc1cccc(N(C)C(=S)Oc2ccc3c(c2)CCCC3)n1 | -47.1%
38 |  |  | CC(C)[C@H](N)C(=O)OCC(CO)OCn1cnc2c(=O)nc(N)[nH]c21.Cl (stereo partly drawn) | -28.1%
39 |  |  | CCN(CC)C(=S)SSC(=S)N(CC)CC | -27.3%
40 |  |  | NC(=O)N/N=C/c1ccc([N+](=O)[O-])o1 | -20.7%
41 |  |  | CCC(CC)(CC(=O)Nc1cccc(/C=C/c2nc(C3CCC3)cs2)c1)C(=O)O | -34.3%
42 |  |  | COc1cc2c(cc1OC)C(C(C(=O)N(CCc1ccc(OC)c(OC)c1OC)CCc1ccc(OC)c(OC)c1OC)c1ccccc1)=NCC2.Cl (stereo not drawn) | -28.4%
43 |  |  | O=C(NC(=O)c1c(F)cccc1F)Nc1ccc(Cl)c(Oc2ncc(C(F)(F)F)cc2Cl)c1 | -39.7%
44 |  |  | CC(=O)O[C@H]\1CC[C@H]4C(=C/1)/CC[C@@H]2[C@@H]4CC[C@]3(C)[C@@](CC[C@@H]23)(C#C)OC(C)=O | -26.3%

Row | IC50 (NCI-H295R [1]) | IC50 (NCI-H295R [3]) [µM] | SMILES | maximal response (NCI-H295R [2])
45 |  |  | O=C1C(O)=C([C@H]2CC[C@H](c3ccc(Cl)cc3)CC2)C(=O)c2ccccc21 | -51%
46 |  |  | OC[C@H]1O[C@@H](n2cnc3c(O)ncnc32)[C@H](O)[C@@H]1O | 26.5%
47 |  |  | COc1cc2c(c(OC)c1OC)-c1ccc(OC)c(=O)cc1[C@@H](NC(C)=O)CC2 | -49.9%
48 |  |  | CCc1cccc(N(C)C(=N)Nc2cccc3ccccc23)c1.Cl | -29.2%
49 |  |  | CN(CC=CC#CC(C)(C)C)Cc1cccc2ccccc12 | -34.4%
50 |  |  | O=C1c2cccc(O)c2C(=O)c2c(O)cccc21 | -35.8%
51 |  |  | CCCCOc1ccc(CC(=O)NO)cc1 | -24%
52 |  |  | CCCSc1ccc2[nH]c(NC(=O)OC)nc2c1 | -55.1%
53 |  |  | O[C@@H]1C4=C(C)[C@@H](OC([C@H](O)[C@H]([C@@]6=CC=CC=C6)NC(OC(C)(C)C)=O)=O)C[C@@](C(C)4C)(O)[C@@H](OC(C5=CC=CC=C5)=O)[C@@]([C@]2(OC(C)=O)CO[C@@H]2C[C@@H]3O)([H])[C@]3(C)C1=O | -59.5%
54 |  |  | C[C@@H]1CCC2[C@@H](C)[C@@H](O)O[C@@H]3O[C@@]4(C)CC[C@@H]1[C@@]23OO4 (stereo partly drawn) | -56.4%
55 |  |  | O=S(=O)([O-])c1ccc2c(/N=N/c3ccc(S(=O)(=O)[O-])c4ccccc34)c(O)c(S(=O)(=O)[O-])cc2c1.[Na+].[Na+].[Na+] | -50.2%
56 |  |  | CCOc1ccc(Cc2nccc3cc(OCC)c(OCC)cc23)cc1OCC.Cl | -39.5%
57 |  |  | CCNC(=O)N1CCN(CCCC(c2ccc(F)cc2)c2ccc(F)cc2)CC1.Cl | -34.2%
58 |  |  | CCc1oc2ccccc2c1C(=O)c1cc(Br)c(O)c(Br)c1 | -59.3%
59 |  |  | CCCOc1ccc2nc(NC(=O)OC)sc2c1 | -48.5%
60 |  |  | CCC/C=C/C=C/C(=O)O[C@H]1/C(=C/C(=O)OC)C[C@H]2C[C@H]([C@@H](C)O)OC(=O)C[C@H](O)C[C@@H]3C[C@H](OC(C)=O)C(C)(C)[C@](O)(C[C@@H]4C/C(=C/C(=O)OC)C[C@H](/C=C/C(C)(C)[C@]1(O)O2)O4)O3 | -41.4%
61 |  |  | N[C@@H](Cc1cc(I)c(Oc2cc(I)c(O)c(I)c2)c(I)c1)C(=O)O | -25.6%
62 |  |  | CN1C(=O)C(O)N=C(c2ccccc2)c2cc(Cl)ccc21 (stereo not drawn) | -27.8%
63 |  |  | CN(C)CCCN1c2ccccc2CCc2ccc(Cl)cc21 | -31.2%
64 |  |  | O=C1C(C(O)=C4C([C@@H](O[C@@H]5O[C@@H](C)[C@@H](O[C@@H]6CCCCO6)[C@@H](N)C5)C[C@@]([C@](CO)=O)(O)C4)=C3O)=C3C(C2=C1C=CC=C2OC)=O | -43%
65 |  |  | CC1=CC(=O)[N-]S(=O)(=O)O1.[K+] | -79.3%
66 |  |  | Cc1c(C(=O)O)c(O)cc2c1C(=O)c1c(O)c([C@@H]3O[C@H](CO)[C@@H](O)[C@H](O)[C@H]3O)c(O)c(O)c1C2=O | -50.2%

Row | SMILES | IC50 (NCI-H295R [1]) | IC50 (NCI-H295R [3]) [µM] | maximal response (NCI-H295R [2])
67 | Nc1ccc2cc3ccc(N)cc3nc2c1.Nc1ccc2cc3ccc(N)cc3nc2c1.O=S(=O)(O)O | 18.8 µM |  | -138%
68 | [O-]C(C(I)=C2)=C(I)C=C2/C(C(C=CC=C3)=C3C([O-])=O)=C1\C=C(I)C(C(I)=C1)=O.[Na+].[Na+] | 26.6 µM |  | -104%
69 | O[C@]([C@@]([H])2CC3)(CC[C@@H]4[C@@](CO5)=CC5=O)[C@]4(C)C[C@@H](O)[C@]2([H])[C@]1(CO)[C@@]3(O)C[C@@H](O[C@H]6[C@H](O)[C@H](O)[C@@H](O)[C@H](C)O6)C[C@H]1O | 0.0841 µM and 0.106 µM |  | -111% and -116%
